Experiment [1] deals with BACE 1 (Beta Secretase enzyme) (Homo sapiens, UniProt P56817). The experiment is described as follows: In vitro enzymatic BACE FRET assay. The experiment is classed as biochemical. The gist of the method:
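BACE activity read by FRET: peptide substrate (50 nM) carrying fluorophore and quencher across the cleavage site, incubated one hour in 0.05 M acetate pH 4.2, 10% DMSO final, 100 uM genapol. Tris addition raises pH to neutrality to stop the reaction before fluorescence is read.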

The test system of experiment [2] is Aβ40 in conditioned medium of cells stably expressing Amyloid Precursor Protein (APP). The experiment is described as follows: In vitro BACE cell-based assay (HEK cell assay), Aβ40 sandwich ELISA. The gist of the method: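 Cells stably expressing APP received 10-point compound dilutions (top 100 μM or 10 μM; 0.1% DMSO) for 24 h. Secreted Aβ40 was quantified by sandwich ELISA (pAb40 capture, biotinylated 6E10 detection, europium time-resolved fluorescence). IC50 was derived from percent inhibition versus concentration.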

[3] abbreviates: IC50 range symbols, Table 1, read-out: BACE 1 FRET assay.
The mark [4] stands for this setting: Homo sapiens, HEK293, 24 h, IC50 range symbols, Table 1, Aβ40, 24 h incubation, read-out: HEK cell assay.
The mark [5] stands for this setting: Homo sapiens, HEK293, bound stated in text, read-out: IC50 value in the BACE cell-based in-vitro assay.
The mark [6] stands for this setting: IC50 range symbols, Table 1, Aβ40, 24 h incubation, read-out: HEK cell assay.

Where two headings read alike, the source gives them in different places.

In US9296698B2, “Amino heteroaryl compounds as beta-secretase modulators and methods of use” (Amgen Inc., priority 2009, dated 2016) one finds IC50 data, which are given here for 25 molecules.

Chain of BACE 1 (Beta Secretase enzyme) (P56817 46-501, species assumed): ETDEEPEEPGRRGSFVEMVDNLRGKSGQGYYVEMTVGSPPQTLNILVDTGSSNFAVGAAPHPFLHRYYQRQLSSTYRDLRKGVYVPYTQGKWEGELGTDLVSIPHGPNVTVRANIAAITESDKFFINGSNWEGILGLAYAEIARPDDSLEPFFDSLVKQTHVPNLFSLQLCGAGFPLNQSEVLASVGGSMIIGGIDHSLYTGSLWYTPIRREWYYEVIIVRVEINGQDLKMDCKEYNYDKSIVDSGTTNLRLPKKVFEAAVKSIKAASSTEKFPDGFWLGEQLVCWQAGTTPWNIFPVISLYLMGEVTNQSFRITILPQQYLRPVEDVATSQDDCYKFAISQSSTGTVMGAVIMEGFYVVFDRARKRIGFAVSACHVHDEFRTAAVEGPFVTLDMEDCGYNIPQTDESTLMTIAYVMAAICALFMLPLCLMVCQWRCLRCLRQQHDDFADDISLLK

In the case of `Cc1cccc(C(=O)N2CCCC2)c1-c1ccc2nc(N)c(CC(C)C(=O)NCc3ccccn3)cc2c1` (stereo not drawn) [Example 149, 3-(2-amino-6-(2-methyl-6-(pyrrolidine-1-carbonyl)phenyl)quinolin-3-yl)-2-methyl-N-(pyridin-2-ylmethyl)propanamide], the IC50 in experiment [1] (setting [3]) and in experiment [2] (setting [4]) was less than 0.5 µM throughout.

Regarding `Cc1cccc(C(=O)N2CCCC2)c1-c1ccc2nc(N)c(CC(C)C(=O)NC3CC3)cc2c1` (stereo not drawn) [Example 150, 3-(2-amino-6-(2-methyl-6-(pyrrolidine-1-carbonyl)phenyl)quinolin-3-yl)-N-cyclopropyl-2-methylpropanamide], the IC50 in experiment [1] (setting [3]) and in experiment [2] (setting [4]) was less than 0.5 µM in each case.

Consider `Cc1cccc(C(=O)N2CCCC2)c1-c1ccc2nc(N)c(CC(C)C(=O)NCc3ccccc3)cc2c1` (stereo not drawn) [Example 151, 3-(2-amino-6-(2-methyl-6-(pyrrolidine-1-carbonyl)phenyl)quinolin-3-yl)-N-benzyl-2-methylpropanamide], for which the IC50 in experiment [1] (setting [3]) and in experiment [2] (setting [4]) was less than 0.5 µM throughout.

Turning to `CC(=O)c1ccccc1-c1ccc2nc(N)c(CC(C)C(=O)Nc3ccccc3)cc2c1` (stereo not drawn) [Example 152, 3-(6-(2-acetylphenyl)-2-aminoquinolin-3-yl)-2-methyl-N-phenylpropanamide], the IC50 in experiment [1] (setting [3]) and in experiment [2] (setting [4]) was less than 0.5 µM in each case.

As for `Cc1cccc(C(=O)N2CCCC2)c1-c1ccc2nc(N)c(CC(C)C(=O)Nc3ccccc3)cc2c1` (stereo not drawn) [Example 153, 3-(2-amino-6-(2-methyl-6-(pyrrolidine-1-carbonyl)phenyl)quinolin-3-yl)-2-methyl-N-phenylpropanamide], the IC50 in experiment [1] (setting [3]) was less than 0.5 µM; in experiment [1] (bound stated, read-out: IC50 value in the FRET BACE enzyme assay) it was less than 0.05 µM; in experiment [2] (setting [4]), less than 0.5 µM; in experiment [2] (setting [5]), less than 0.1 µM.

Take `CNC(=O)C(C)Cc1cc2cc(-c3ccccc3C(C)=O)ccc2nc1N` (stereo not drawn) [Example 154, 3-(6-(2-acetylphenyl)-2-aminoquinolin-3-yl)-N,2-dimethylpropanamide]: the IC50 in experiment [1] (setting [3]) and in experiment [2] (setting [4]) was more than 5 µM throughout.

Take `CNC(=O)[C@@H](C)Cc1cc2cc(-c3c(C)cccc3C(=O)N3CCCC3)ccc2nc1N` [Example 155, (S) 3-(2-amino-6-(2-methyl-6-(pyrrolidine-1-carbonyl)phenyl)quinolin-3-yl)-N,2-dimethylpropanamide]: the IC50 in experiment [1] (setting [3]) and in experiment [2] (setting [4]) was 1 to 5 µM in each case.

In the case of `CNC(=O)C(C)Cc1cc2cc(-c3ccccc3C(=O)C3CCCCC3)ccc2nc1N` (stereo not drawn) [Example 157, 3-(2-amino-6-(2-(cyclohexanecarbonyl)phenyl)quinolin-3-yl)-N,2-dimethylpropanamide], the IC50 in experiment [1] (setting [3]) is less than 0.5 µM; in experiment [2] (setting [4]), 0.5 to 1 µM.

In the case of `Cc1ccccc1-c1ccc2nc(N)c(C[C@@H](C)C(=O)NC3CCOC(C)C3)cc2c1` (stereo partly drawn) [Example 158, (2R)-3-(2-amino-6-o-tolylquinolin-3-yl)-2-methyl-N-(2-methyltetrahydro-2H-pyran-4-yl)propanamide], the IC50 in experiment [1] (setting [3]) and in experiment [2] (setting [4]) was less than 0.5 µM in each case.

For the molecule `CC(Cc1cc2cc(-c3cccc(Cl)c3Cl)ccc2nc1N)C(=O)NC1CCOC(C)(C)C1` (stereo not drawn) [Example 159, 3-(2-amino-6-(2,3-dichlorophenyl)quinolin-3-yl)-N-(2,2-dimethyltetrahydro-2H-pyran-4-yl)-2-methylpropanamide], the IC50 in experiment [1] (setting [3]) and in experiment [2] (setting [4]) was less than 0.5 µM in each case.

Take `C#CC1CC(NC(=O)[C@H](C)Cc2cc3cc(-c4ccccc4C)ccc3nc2N)CCO1` (stereo partly drawn) [Example 160, (R)-3-(2-amino-6-o-tolylquinolin-3-yl)-N-(cis-2-ethynyltetrahydro-2H-pyran-4-yl)-2-methylpropanamide]: the IC50 in experiment [1] (setting [3]) and in experiment [2] (setting [4]) was less than 0.5 µM throughout.

As to `CC(Cc1cc2cc(-c3cccc(Cl)c3Cl)ccc2nc1N)C(=O)NC1CCOC2(CCC2)C1` (stereo not drawn) [Example 161, 3-(2-amino-6-(2,3-dichlorophenyl)quinolin-3-yl)-2-methyl-N-(5-oxaspiro[3.5]nonan-8-yl)propanamide], the IC50 in experiment [1] (setting [3]) and in experiment [2] (setting [4]) was less than 0.5 µM in each case.

`Cc1ccccc1-c1ccc2nc(N)c(C[C@@H](C)C(=O)NC3CCCC(C)(C)C3)cc2c1` (stereo partly drawn) [Example 162, (2R)-3-(2-amino-6-(2-methylphenyl)-3-quinolinyl)-N-(3,3-dimethylcyclohexyl)-2-methylpropanamide]: the IC50 in experiment [1] (setting [3]) and in experiment [2] (setting [4]) was less than 0.5 µM in each case.

With `Cc1ccccc1-c1ccc2nc(N)c(CCC(=O)NC3CCOC(C)(C)C3)cc2c1` (stereo not drawn) [Example 163, 3-(2-amino-6-(2-methylphenyl)-3-quinolinyl)-N-(-2,2-dimethyltetrahydro-2H-pyran-4-yl)propanamide], the IC50 is less than 0.5 µM in experiment [1] (setting [3]), less than 0.5 µM in experiment [2] (setting [4]) and less than 0.1 µM in experiment [2] (setting [5]).

On to `CC(C)(C)CCNC(=O)CCc1cc2cc(-c3ccccc3C(=O)N3CCCC3)ccc2nc1N` [Example 165, 3-(2-amino-6-(2-(1-pyrrolidinylcarbonyl)phenyl)-3-quinolinyl)-N-(3,3-dimethylbutyl)propanamide], for which the IC50 in experiment [1] (setting [3]) was less than 0.5 µM; in experiment [2] (setting [4]), 1 to 5 µM.

Turning to `CC(Cc1cc2cc(-c3ccc(F)cc3Cl)ccc2nc1N)C(=O)NC1CCOC(C)(C)C1` (stereo not drawn) [Example 166, 3-(2-amino-6-(2-chloro-4-fluorophenyl)-3-quinolinyl)-N-(2,2-dimethyltetrahydro-2H-pyran-4-yl)-2-methylpropanamide], the IC50 in experiment [1] (setting [3]) was less than 0.5 µM; in experiment [2] (setting [4]), 1 to 5 µM.

Regarding `CC(Cc1cc2cc(-c3ccc(F)cc3)ccc2nc1N)C(=O)NC1CCOC(C)(C)C1` (stereo not drawn) [Example 167, 3-(2-amino-6-(4-fluorophenyl)-3-quinolinyl)-N-(2,2-dimethyltetrahydro-2H-pyran-4-yl)-2-methylpropanamide], the IC50 in experiment [1] (setting [3]) was 1 to 5 µM; in experiment [2] (setting [4]), more than 5 µM.

Turning to `CC(Cc1cc2cc(-c3ccc(Cl)cc3)ccc2nc1N)C(=O)NC1CCOC(C)(C)C1` (stereo not drawn) [Example 168, 3-(2-amino-6-(4-chlorophenyl)-3-quinolinyl)-N-(2,2-dimethyltetrahydro-2H-pyran-4-yl)-2-methylpropanamide], the IC50 in experiment [1] (setting [3]) and in experiment [2] (setting [4]) was less than 0.5 µM each time.

With `CC(Cc1cc2cc(-c3cccc(Cl)c3)ccc2nc1N)C(=O)NC1CCOC(C)(C)C1` (stereo not drawn) [Example 169, 3-(2-amino-6-(3-chlorophenyl)-3-quinolinyl)-N-(2,2-dimethyltetrahydro-2H-pyran-4-yl)-2-methylpropanamide], the IC50 in experiment [1] (setting [3]) was less than 0.5 µM; in experiment [2] (setting [4]), less than 0.5 µM; in experiment [2] (setting [5]), less than 0.1 µM.

In the case of `Cc1ccccc1-c1ccc2nc(N)c(CC(C)C(=O)NC3CCOC4(CCC4)C3)cc2c1` [Example 170, (2R)-3-(2-amino-6-(2-methylphenyl)-3-quinolinyl)-2-methyl-N-(5-oxaspiro[35]non-8-yl)propanamide], the IC50 in experiment [1] (setting [3]) and in experiment [2] (setting [4]) was less than 0.5 µM in each case.

Consider `CC(Cc1cc2cc(-c3ccccc3Cl)ccc2nc1N)C(=O)NC1CCOC2(CCC2)C1` (stereo not drawn) [Example 171, 3-(2-amino-6-(2-chlorophenyl)-3-quinolinyl)-2-methyl-N-(5-oxaspiro[3,5]non-8-yl)propanamide], for which the IC50 in experiment [1] (setting [3]) and in experiment [2] (setting [4]) was less than 0.5 µM each time.

Regarding “N-(2-fluorobenzyl)-3-(3-amino-7-o-tolylnaphthalen-2-yl)propanamide [Example 27]”, the IC50 in experiment [1] (setting [3]) is less than 0.5 µM; in experiment [2] (setting [6]), 1 to 5 µM.

As for “N-(2-methoxybenzyl)-3-(3-amino-7-o-tolylnaphthalen-2-yl)propanamide [Example 61]”, the values for the IC50 in experiment [1] (setting [3]) and in experiment [2] (setting [6]) were 1 to 5 µM and more than 5 µM, respectively.

On to “N-(3-fluoro-3-methylbutyl)-2-methyl-3-(6-(3-methylpyridin-2-yl)quinolin-3-yl)propanamide [Example 101]”, for which the IC50 in experiment [1] (setting [3]) and in experiment [2] (setting [6]) was less than 0.5 µM in each case.

For “N-(4-fluoro-4-methylpentan-2-yl)-2-methyl-3-(6-(3-methylpyridin-2-yl)quinolin-3-yl)propanamide [Example 100]”, the values for the IC50 in experiment [1] (setting [3]) and in experiment [2] (setting [6]) were 0.5 to 1 µM and 1 to 5 µM, respectively.
